Active and inactive are the calls of the source. The calls are words filed in the database; no cut-off is given here.
Biological target: T1, Aryl hydrocarbon receptor (Homo sapiens, UniProt P35869)
T1 sequence (P35869 whole entry): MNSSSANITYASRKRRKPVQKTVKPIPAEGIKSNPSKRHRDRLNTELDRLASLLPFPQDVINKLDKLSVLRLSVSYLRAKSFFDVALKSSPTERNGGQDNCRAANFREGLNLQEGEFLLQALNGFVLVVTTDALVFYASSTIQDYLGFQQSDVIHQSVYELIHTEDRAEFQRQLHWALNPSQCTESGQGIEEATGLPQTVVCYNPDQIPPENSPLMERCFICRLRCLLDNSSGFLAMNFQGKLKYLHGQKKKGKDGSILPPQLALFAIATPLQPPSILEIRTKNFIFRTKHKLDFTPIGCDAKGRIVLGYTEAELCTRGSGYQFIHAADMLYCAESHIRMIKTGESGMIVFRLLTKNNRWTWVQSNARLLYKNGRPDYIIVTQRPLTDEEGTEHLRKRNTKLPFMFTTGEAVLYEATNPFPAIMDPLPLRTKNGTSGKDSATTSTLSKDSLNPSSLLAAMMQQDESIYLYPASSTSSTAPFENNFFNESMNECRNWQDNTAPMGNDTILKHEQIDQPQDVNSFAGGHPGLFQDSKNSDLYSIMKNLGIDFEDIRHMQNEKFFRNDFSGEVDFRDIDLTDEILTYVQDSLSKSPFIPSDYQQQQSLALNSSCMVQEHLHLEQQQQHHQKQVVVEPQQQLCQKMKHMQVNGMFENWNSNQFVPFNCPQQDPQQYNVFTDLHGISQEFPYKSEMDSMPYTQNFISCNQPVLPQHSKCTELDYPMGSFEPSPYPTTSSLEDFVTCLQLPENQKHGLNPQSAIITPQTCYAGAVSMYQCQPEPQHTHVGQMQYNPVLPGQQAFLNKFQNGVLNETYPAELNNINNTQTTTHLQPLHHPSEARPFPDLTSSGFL
Assay: Agonist activity at AHR in human HepG2-Lucia AhR cells stably transfected with DRE by luciferase reporter assay
Type: cell-based
Details: not given

Row | SMILES | EC50 [nM]
1 | COc1cccc(OC)c1C(=O)OCc1cc(=O)n2cc(Br)ccc2n1 | 5900
2 | Cc1cc(-c2nnc3sc(-c4ccccc4Br)nn23)[nH]n1 | 2800
3 | CN1C(=O)/C(=C/c2n[nH]c3ccccc23)NC1=S | 49
4 | CN1C(=O)/C(=C/c2csc3ccccc23)NC1=S | 1800
5 | CC(C)N1C(=O)/C(=C/c2c[nH]c3ccccc23)NC1=S | 10000
6 | Cc1ccc([N+](=O)[O-])c2c1NC(c1ccc(Br)cc1)=NO2 | 3400
7 | Cc1[nH]c2ccccc2c1/C=C1\NC(=S)N(C)C1=O | > 10000
8 | CN1C(=O)/C(=C/c2c[nH]c3ccccc23)NC1=S | 143
9 | CCN1C(=O)/C(=C\c2c[nH]c3ccccc23)NC1=S | 1800
10 | O=C1NC(=S)N/C1=C\c1c[nH]c2ccccc12 | > 10000
11 | CCN1C(=O)/C(=C/c2n[nH]c3ccccc23)NC1=S | 219
12 | CN1C(=O)/C(=C/c2cncnc2)NC1=S | > 10000
13 | O=C1NC(=O)/C(=C/c2c[nH]c3ccccc23)N1 | > 10000
14 | CC#CCN1C(=O)/C(=C/c2n[nH]c3ccccc23)NC1=S | 528
15 | C#CCN1C(=O)/C(=C/c2n[nH]c3ccccc23)NC1=S | 15
16 | CN1C(=S)NC(=O)/C1=C/c1n[nH]c2ccccc12 | 2500
17 | CN1C(=O)C(Cc2c[nH]c3ccccc23)NC1=S (stereo not given) [NECROSTATIN] | > 10000

Biological target: T1, Aryl hydrocarbon receptor
Assay: Agonist activity at AHR in human HepG2 cells stably transfected with DRE assessed as increase in CYP1A1 mRNA expression by qPCR assay
Type: cell-based
Details: dose 0.1-10 µM

Row | SMILES | Activity
18 | C#CCN1C(=O)/C(=C/c2n[nH]c3ccccc23)NC1=S | Dose-Dependent Effect

Biological target: T1, Aryl hydrocarbon receptor
Assay: Agonist activity at AHR in human HepG2 cells stably transfected with DRE assessed as increase in AHR nuclear translocation at 1 to 10 uM by Western blot analysis
Type: cell-based
Details: dose 1-10 µM

Row | SMILES | Activity
19 | C#CCN1C(=O)/C(=C/c2n[nH]c3ccccc23)NC1=S | Dose-Dependent Effect

System: Mus musculus
Assay: Anti-psoriatic activity in imiquimod-induced BALB/c mouse model assessed as decrease in psoriasis-like skin lesion at 1 % administered topically
Type: functional, organism-based
Details: Zone of skin, route top

Row | SMILES | Activity
20 | C#CCN1C(=O)/C(=C/c2n[nH]c3ccccc23)NC1=S | Active

— ChEMBL document CHEMBL5365401, “Discovery of 5-((1H-indazol-3-yl) methylene)-2-thioxoimidazolidin-4-one derivatives as a new class of AHR agonists with anti-psoriasis activity in a mouse model” (Bioorg Med Chem Lett, 2023)
